Measured values from paper doi:10.1101/2024.08.13.607785v1 (biorxiv, 2024).
Read-outs that look alike come from different tables or passages of the source.

What was measured:
Assay in all cases: biochemical
Design in all cases: species or system mixed lysate of K562, MV4-11, THP-1, NCI-H1155
[1] = target: Calcium/calmodulin-dependent protein kinase kinase 2 ; CAMKK2 ; Q96RR4 (Homo sapiens, UniProt Q96RR4)
[2] = target: Glycogen synthase kinase-3 alpha ; GSK3A ; P49840 (Homo sapiens, UniProt P49840)
[3] = target: Cyclin-dependent kinase 12 ; CDK12 ; Q9NYV4 (Homo sapiens, UniProt Q9NYV4)
[4] = target: Calcium/calmodulin-dependent protein kinase kinase 1 ; CAMKK1 ; Q8N5S9 (Homo sapiens, UniProt Q8N5S9)
[5] = target: Cyclin-dependent kinase 9 ; CDK9 ; P50750 (Homo sapiens, UniProt P50750)
[6] = target: T1, Interleukin-1 receptor-associated kinase 3 ; IRAK3 ; Q9Y616 (Homo sapiens, UniProt Q9Y616)
T1 sequence (Q9Y616 1-596): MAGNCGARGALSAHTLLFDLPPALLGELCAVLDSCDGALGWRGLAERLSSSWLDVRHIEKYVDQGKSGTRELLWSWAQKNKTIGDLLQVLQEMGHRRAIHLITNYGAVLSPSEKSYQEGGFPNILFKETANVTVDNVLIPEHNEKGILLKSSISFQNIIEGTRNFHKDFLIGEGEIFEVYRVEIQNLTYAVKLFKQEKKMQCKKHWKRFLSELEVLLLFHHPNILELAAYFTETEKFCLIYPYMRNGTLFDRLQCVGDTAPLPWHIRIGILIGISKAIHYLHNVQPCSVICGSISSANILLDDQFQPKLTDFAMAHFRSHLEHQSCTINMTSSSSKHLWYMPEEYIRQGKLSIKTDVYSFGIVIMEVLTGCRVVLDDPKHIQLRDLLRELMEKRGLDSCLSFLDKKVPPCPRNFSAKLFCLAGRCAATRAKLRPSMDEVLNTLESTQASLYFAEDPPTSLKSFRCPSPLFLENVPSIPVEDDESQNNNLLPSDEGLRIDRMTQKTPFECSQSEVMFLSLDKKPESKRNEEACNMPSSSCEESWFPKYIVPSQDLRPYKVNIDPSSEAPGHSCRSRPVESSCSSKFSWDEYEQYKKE

[7] = target: Isoform 2 of Cyclin-dependent kinase 17 ; CDK17 ; Q00537-2 (Homo sapiens, UniProt Q00537)
[8] = target: Cyclin-dependent kinase 4 ; CDK4 ; P11802 (Homo sapiens, UniProt P11802)
[9] = target: T2, Cyclin-dependent kinase-like 5 ; CDKL5 ; O76039 (Homo sapiens, UniProt O76039)
T2 sequence (O76039 1-960): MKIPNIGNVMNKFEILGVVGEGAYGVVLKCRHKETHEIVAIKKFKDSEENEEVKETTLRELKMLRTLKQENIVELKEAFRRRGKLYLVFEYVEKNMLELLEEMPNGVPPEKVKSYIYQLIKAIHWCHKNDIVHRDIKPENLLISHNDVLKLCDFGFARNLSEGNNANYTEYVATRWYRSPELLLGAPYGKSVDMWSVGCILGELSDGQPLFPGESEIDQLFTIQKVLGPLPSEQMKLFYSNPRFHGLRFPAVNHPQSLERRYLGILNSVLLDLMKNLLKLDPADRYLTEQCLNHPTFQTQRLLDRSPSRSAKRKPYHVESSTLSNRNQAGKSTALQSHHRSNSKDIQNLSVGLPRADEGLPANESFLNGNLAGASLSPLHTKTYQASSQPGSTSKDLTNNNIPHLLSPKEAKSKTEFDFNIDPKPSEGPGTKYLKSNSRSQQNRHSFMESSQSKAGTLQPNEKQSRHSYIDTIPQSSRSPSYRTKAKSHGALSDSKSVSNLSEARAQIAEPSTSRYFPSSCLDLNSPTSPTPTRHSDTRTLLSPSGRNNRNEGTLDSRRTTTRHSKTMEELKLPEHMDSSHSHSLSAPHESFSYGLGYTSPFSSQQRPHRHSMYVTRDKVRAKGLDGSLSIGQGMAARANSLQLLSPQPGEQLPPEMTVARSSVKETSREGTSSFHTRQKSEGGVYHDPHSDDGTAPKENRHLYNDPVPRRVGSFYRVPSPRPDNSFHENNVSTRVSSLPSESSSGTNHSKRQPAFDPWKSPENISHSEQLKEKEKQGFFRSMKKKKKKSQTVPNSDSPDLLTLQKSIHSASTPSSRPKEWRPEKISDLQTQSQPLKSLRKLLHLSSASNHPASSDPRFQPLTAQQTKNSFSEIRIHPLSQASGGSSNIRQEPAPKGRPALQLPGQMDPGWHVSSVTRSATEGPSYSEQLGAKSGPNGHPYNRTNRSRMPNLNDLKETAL

[10] = target: Isoform 4 of TRAF2 and NCK-interacting protein kinase ; TNIK ; Q9UKE5-4 (Homo sapiens, UniProt Q9UKE5)
[11] = read-out: BAY-1143572 (10 µM) / %Intensity relative to DMSO
[12] = read-out: BAY-1251152 (10 µM) / %Intensity relative to DMSO

Sequence of Calcium/calmodulin-dependent protein kinase kinase 1 ; CAMKK1 ; Q8N5S9 (Q8N5S9 whole entry, one chain of several): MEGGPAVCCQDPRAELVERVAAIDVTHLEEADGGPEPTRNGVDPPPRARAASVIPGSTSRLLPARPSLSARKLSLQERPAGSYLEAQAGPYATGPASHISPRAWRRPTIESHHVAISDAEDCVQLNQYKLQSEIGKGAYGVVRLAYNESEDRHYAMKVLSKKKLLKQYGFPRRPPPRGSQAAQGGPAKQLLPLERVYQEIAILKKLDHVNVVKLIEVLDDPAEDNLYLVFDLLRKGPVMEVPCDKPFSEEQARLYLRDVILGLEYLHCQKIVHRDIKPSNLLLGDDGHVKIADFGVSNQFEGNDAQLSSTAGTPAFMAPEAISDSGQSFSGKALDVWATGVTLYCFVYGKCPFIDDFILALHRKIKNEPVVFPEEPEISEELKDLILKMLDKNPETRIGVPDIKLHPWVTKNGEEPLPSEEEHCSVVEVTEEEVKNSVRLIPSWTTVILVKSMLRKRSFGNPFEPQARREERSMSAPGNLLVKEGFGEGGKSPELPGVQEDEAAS
Sequence of Glycogen synthase kinase-3 alpha ; GSK3A ; P49840 (P49840 whole entry): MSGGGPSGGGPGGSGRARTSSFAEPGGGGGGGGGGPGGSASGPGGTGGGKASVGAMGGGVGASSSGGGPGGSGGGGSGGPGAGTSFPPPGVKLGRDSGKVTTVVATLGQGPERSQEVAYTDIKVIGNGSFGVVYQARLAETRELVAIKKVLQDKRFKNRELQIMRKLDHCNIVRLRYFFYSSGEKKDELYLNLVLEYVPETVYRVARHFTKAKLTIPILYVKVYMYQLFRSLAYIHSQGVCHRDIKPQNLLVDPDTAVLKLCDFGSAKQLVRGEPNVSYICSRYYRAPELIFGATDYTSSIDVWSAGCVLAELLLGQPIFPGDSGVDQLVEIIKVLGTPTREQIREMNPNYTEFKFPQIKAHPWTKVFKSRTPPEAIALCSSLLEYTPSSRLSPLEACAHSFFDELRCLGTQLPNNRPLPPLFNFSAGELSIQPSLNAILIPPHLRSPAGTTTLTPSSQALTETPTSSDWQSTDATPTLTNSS
Sequence of Cyclin-dependent kinase 12 ; CDK12 ; Q9NYV4 (Q9NYV4 whole entry, one chain of several): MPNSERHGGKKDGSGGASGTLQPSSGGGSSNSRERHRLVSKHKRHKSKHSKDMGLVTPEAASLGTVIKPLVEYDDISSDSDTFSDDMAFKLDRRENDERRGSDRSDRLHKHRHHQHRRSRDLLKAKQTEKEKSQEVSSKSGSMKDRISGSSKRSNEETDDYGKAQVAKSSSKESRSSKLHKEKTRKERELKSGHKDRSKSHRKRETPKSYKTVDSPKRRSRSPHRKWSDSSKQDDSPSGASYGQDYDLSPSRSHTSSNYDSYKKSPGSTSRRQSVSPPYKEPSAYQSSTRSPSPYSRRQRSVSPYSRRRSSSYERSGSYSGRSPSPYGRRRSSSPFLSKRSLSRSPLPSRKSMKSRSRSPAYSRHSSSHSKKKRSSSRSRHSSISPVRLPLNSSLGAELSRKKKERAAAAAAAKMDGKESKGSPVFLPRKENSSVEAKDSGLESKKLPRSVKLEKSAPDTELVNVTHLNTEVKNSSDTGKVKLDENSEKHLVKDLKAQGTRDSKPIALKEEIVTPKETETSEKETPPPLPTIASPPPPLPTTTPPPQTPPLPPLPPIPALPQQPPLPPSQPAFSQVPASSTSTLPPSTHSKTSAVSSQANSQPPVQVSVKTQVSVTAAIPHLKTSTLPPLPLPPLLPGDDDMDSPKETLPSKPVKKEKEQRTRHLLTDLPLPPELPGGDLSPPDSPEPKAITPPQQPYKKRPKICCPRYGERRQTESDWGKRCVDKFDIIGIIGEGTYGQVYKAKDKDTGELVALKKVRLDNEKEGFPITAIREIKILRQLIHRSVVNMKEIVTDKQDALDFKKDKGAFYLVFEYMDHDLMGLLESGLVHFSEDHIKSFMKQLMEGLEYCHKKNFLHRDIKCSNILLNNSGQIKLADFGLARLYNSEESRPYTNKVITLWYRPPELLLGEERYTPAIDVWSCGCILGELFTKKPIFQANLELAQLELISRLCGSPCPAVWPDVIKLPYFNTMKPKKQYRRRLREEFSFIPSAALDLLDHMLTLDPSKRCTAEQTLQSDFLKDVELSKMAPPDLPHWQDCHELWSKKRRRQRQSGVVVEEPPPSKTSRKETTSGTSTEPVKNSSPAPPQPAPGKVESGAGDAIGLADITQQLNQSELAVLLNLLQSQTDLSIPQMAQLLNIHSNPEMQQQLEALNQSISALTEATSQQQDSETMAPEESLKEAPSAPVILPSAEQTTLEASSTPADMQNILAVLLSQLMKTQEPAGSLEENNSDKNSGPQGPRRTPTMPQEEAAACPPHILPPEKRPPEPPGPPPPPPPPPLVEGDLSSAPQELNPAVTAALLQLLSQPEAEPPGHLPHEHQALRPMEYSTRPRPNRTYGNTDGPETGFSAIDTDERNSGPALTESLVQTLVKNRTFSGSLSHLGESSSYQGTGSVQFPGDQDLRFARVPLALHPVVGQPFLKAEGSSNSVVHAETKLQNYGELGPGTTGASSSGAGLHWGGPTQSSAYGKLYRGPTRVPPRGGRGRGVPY
Sequence of Isoform 4 of TRAF2 and NCK-interacting protein kinase ; TNIK ; Q9UKE5-4 (Q9UKE5 whole entry, canonical isoform, one chain of several): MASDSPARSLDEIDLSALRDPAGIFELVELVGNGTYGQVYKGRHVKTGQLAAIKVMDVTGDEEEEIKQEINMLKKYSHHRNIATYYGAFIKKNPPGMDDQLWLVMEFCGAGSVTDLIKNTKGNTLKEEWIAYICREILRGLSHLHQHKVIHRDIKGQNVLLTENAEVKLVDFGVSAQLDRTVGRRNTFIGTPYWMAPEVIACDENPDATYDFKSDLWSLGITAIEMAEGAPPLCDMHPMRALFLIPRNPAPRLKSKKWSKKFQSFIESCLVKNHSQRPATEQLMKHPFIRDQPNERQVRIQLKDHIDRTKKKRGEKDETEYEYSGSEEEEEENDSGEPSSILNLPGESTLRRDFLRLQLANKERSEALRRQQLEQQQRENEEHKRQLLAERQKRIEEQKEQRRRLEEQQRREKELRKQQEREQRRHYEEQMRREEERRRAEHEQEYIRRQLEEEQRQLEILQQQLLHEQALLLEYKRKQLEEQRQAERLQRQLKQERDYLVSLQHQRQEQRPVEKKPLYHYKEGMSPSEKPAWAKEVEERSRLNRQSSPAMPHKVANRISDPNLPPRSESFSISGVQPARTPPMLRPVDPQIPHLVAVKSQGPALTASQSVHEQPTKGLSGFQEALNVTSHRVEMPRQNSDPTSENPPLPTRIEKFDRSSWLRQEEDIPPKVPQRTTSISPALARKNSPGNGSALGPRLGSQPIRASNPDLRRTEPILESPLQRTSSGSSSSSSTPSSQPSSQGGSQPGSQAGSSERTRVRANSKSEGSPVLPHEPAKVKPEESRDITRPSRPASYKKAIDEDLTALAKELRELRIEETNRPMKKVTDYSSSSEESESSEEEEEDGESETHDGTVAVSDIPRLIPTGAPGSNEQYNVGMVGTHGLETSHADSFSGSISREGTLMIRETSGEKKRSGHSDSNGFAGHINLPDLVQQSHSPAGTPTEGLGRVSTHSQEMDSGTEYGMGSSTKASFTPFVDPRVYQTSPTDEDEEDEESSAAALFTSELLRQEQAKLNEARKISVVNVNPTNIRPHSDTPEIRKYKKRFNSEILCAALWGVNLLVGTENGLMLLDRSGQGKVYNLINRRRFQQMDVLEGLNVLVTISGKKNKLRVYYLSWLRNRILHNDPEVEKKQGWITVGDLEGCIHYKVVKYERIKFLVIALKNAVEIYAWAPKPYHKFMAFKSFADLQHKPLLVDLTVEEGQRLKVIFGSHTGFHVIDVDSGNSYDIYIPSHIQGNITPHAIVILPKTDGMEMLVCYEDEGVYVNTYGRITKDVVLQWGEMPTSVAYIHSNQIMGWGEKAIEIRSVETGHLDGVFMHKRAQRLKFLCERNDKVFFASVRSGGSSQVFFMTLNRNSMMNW
Sequence of Isoform 2 of Cyclin-dependent kinase 17 ; CDK17 ; Q00537-2 (Q00537 whole entry, canonical isoform, one chain of several): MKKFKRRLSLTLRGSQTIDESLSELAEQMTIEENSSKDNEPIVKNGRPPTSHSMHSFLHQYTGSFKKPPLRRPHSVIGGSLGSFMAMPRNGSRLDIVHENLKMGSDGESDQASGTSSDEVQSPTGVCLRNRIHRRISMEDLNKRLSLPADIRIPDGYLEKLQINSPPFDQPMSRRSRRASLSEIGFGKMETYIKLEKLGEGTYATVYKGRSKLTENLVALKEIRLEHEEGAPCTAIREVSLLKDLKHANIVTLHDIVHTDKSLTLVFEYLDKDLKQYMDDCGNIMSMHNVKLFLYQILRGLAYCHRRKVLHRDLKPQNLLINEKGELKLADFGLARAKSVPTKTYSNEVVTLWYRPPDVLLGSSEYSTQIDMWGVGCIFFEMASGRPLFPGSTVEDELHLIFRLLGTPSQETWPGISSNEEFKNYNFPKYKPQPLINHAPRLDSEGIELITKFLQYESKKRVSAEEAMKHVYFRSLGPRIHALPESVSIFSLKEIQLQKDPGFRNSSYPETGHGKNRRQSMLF
Sequence of Cyclin-dependent kinase 4 ; CDK4 ; P11802 (P11802 whole entry, one chain of several): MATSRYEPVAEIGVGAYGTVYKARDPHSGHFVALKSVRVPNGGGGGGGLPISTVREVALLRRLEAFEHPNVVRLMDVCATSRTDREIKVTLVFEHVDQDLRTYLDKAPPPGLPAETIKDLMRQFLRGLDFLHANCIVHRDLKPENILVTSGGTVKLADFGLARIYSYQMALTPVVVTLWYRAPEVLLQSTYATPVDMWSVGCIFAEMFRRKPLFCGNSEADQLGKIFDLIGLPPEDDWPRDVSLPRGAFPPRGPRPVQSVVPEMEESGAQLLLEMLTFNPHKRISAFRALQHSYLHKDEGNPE
Sequence of Cyclin-dependent kinase 9 ; CDK9 ; P50750 (P50750 whole entry, one chain of several): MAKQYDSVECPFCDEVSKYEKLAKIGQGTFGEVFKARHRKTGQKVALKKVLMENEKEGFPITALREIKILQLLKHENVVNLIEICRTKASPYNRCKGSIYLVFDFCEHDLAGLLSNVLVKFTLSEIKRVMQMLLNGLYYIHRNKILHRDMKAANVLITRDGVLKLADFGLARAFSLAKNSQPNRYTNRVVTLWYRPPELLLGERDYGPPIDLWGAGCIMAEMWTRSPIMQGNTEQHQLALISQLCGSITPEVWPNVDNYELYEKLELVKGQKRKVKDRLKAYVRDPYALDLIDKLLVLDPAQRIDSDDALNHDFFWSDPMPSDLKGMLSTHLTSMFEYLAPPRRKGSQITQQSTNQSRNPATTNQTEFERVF

| SMILES | remaining activity at 10 µM [1, 11] [%] | remaining activity at 10 µM [2, 11] [%] | remaining activity at 10 µM [3, 11] [%] | remaining activity at 10 µM [4, 11] [%] | remaining activity at 10 µM [5, 11] [%] | remaining activity at 10 µM [6, 11] [%] | remaining activity at 10 µM [7, 11] [%] | remaining activity at 10 µM [8, 11] [%] | remaining activity at 10 µM [9, 11] [%] | remaining activity at 10 µM [10, 11] [%] | remaining activity at 10 µM [1, 12] [%] | remaining activity at 10 µM [2, 12] [%] | remaining activity at 10 µM [3, 12] [%] | remaining activity at 10 µM [4, 12] [%] | remaining activity at 10 µM [5, 12] [%] | remaining activity at 10 µM [6, 12] [%] | remaining activity at 10 µM [7, 12] [%] | remaining activity at 10 µM [8, 12] [%] | remaining activity at 10 µM [9, 12] [%] | remaining activity at 10 µM [10, 12] [%] |
| --- | --- | --- | --- | --- | --- | --- | --- | --- | --- | --- | --- | --- | --- | --- | --- | --- | --- | --- | --- | --- |
| COc1cc(F)ccc1-c1ncnc(Nc2cccc(C[S@](C)(=N)=O)c2)n1 [BAY-1143572] | 50.1 | 3.48 | 64.7 | 15.4 | 3.85 | 24 | 66.1 | 133 | 27.1 | 78.3 |  |  |  |  |  |  |  |  |  |  |
| COc1cc(F)ccc1-c1cc(Nc2cc(CS(C)(=N)=O)ccn2)ncc1F (centres unmarked) [BAY-1251152] |  |  |  |  |  |  |  |  |  |  | 29.2 | 5.28 | 37.5 | 10.4 | 2.79 | 86.2 | 49.4 | 121 | 78.6 | 37.2 |
